{
  "source": "patent US7326542B2",
  "about": "“Compositions and methods for regulating bacterial pathogenesis” (priority 1998, dated 2008)",
  "key": {"[1]": {"test_system": "V. harveyi reporter strain BB170 (Sensor 1-, Sensor 2+)", "type": "cell-based, Vibrio harveyi", "procedure": "Cell-free culture fluids from E. coli, S. typhimurium and V. harveyi strains were tested for the presence of signaling substances that could induce luminescence in the V. harveyi reporter strain BB170 or BB886. […] The microtiter dishes were shaken in a rotary shaker at 175 rpm at 30° C.\nThe cell density was measured by diluting the same aliquots of cells used for measuring luminescence, spreading the dilutions onto solid LM medium, incubating the plates overnight at 30° C., and counting the resulting colonies the following day. […] Cell-free culture supernatants from V. harveyi or S. typhimurium strains were added to a final concentration of 10% (v/v) at the time of the first measurement. In control experiments, 10% (v/v) of AB medium, LB medium or LB medium containing 0.5% glucose was added instead of cell-free culture fluids."}, "[2]": {"test_system": "V. harveyi luxN, luxS double mutant reporter strain", "assay": "V. harveyi luxN, luxS double mutant reporter strain luminescence assay", "type": "cell-based, Vibrio harveyi", "settings": "AI-1 from MM30 and AI-2 from BB152 culture fluids", "procedure": "Verification that the luxN, luxS Double Mutant Responds to AI-2. […] This was verified in a luminescence assay for response to V. harveyi AI-1 and AI-2. V. harveyi strain MM30 (luxS::Tn5) which is phenotypically AI-1^+, AI-2^−, and V. harveyi strain BB152 (luxM::Tn5) which is phenotypically AI-1^−, AI-2^+ were used as the sources of AI-1 and AI-2 respectively. The AI-1 and AI-2 present in culture fluids of these strains was tested for stimulation of light production of the V. harveyi luxN, luxS double mutant reporter strain. In this assay, autoinducer preparations from MM30, BB152 or sterile medium controls were added to the wells of microtiter plates, followed by the addition of the V. harveyi reporter strain. The resulting light production was monitored using a liquid scintillation counter in the chemiluminescence mode. Maximal stimulation of light production in the V. harveyi luxN, luxS reporter strain was compared to that produced by the Sensor 1^+, Sensor 2^− V. harveyi strain BB886 and the Sensor 1^−, Sensor 2^+ V. harveyi strain BB170. These two V. harveyi strains are routinely used in this assay as reporters of AI-1 and AI-2 activity respectively."}, "[3]": {"test_system": "V. harveyi reporter strain BB886 (Sensor 1+, Sensor 2-)", "assay": "V. harveyi BB886 luminescence bioassay (AI-1 / Signaling System 1)", "type": "cell-based, Vibrio harveyi", "settings": "non self-stimulating sensor-1+, sensor-2- mutant (BB886)", "procedure": "Assay for production of signaling compounds. Cell-free culture fluids from E. coli, S. typhimurium and V. harveyi strains were tested for the presence of signaling substances that could induce luminescence in the V. harveyi reporter strain BB170 or BB886. In the assays, 10 1 of cell-free culture fluids from E. coli AB1157, E. coli DH5, and S. typhimurium LT2 strains grown and harvested as described above were added to 96-well microtiter dishes. The V. harveyi reporter strain BB170 or BB886 was grown for 16 h at 30° C. with aeration in AB medium, diluted 1:5000 into fresh AB medium, and 90 1 of the diluted cells were added to the wells containing the E. coli and S. typhimurium cell-free culture fluids. Positive control wells contained 10 1 of cell-free culture fluid from strain V. harveyi BB152 (Autoinducer-1^−, Autoinducer-2^+) or V. harveyi BB 120 (Autoinducer-1^+, Autoinducer-2^+). Negative control wells contained 10 1 of sterile growth medium. […] Every hour, light production was measured using a Wallac Model 1450 Microbeta Plus liquid scintillation counter in the chemiluminescence mode. The V. harveyi cell density was measured by diluting the same aliquots of cells used for measuring luminescence, spreading the dilutions onto solid LM medium (Bassler et al., 1993, supra), incubating the plates overnight at 30C., and counting the resulting colonies the following day. […]"}, "[4]": {"test_system": "rck::MudJ fusion in S. typhimurium (sdiA+ and sdiA-)", "assay": "SdiA regulated rck::MudJ fusion, galactosidase", "type": "cell-based", "settings": "addition of AI-2 from E. coli or S. typhimurium, 2 h", "procedure": "For ftsQ regulation in E. coli, the plasmids pMS207 and pMS209 were transformed into E. coli strain MC4100 (Silhavy et al., 1984, supra), and the transformants were grown overnight in LB containing 100 mg/L ampicillin at 30° C. with aeration. For rck regulation, S. typhimurium strains BA1105 (rck::MudJ) and BA1305 (rck::MudJ sdiA) were grown overnight in LB containing 100 mg/L kanamycin at 30° C. with aeration. The overnight cultures were diluted 20-fold into fresh medium and grown for an additional 4.5 h. At this time, each culture was divided into five identical aliquots and 10% (v/v) of one of the following was added to each aliquot: LB, 0.4 M NaCl, […] osmotic shock fluids from S. typhimurium LT2, E. coli 0157 or E. coli strain DH5 (negative control). The osmotic shock fluids were prepared as described above, following pre-growth of the S. typhimurium LT2 and E. coli in LB containing 0.5% glucose for 6 h. The cell suspensions were incubated at 30° C. for 2 h, after which standard-galactosidase reactions were performed on the samples (Miller, A Short Course in Bacterial Genetics, Cold Spring Harbor Laboratory Press, 1992)."}, "[5]": {"assay": "Stability of the signaling activity (acid, base, heat, storage)", "type": "physicochemical"}, "[6]": {"test_system": "ftsQ1p2p-lacZ fusion in E. coli MC4100/pMS207", "assay": "SdiA regulated ftsQ1p2p-lacZ reporter, galactosidase", "type": "cell-based", "settings": "10% (v/v) 0.4 M NaCl osmotic shock fluids containing AI-2 activity, 2 h", "source_text": "Analysis of the effect of autoinducer on SdiA regulated gene expression. A sequence that includes the ftsQ1p and ftsQ2p promoters (Wang et al., 1991, supra) was amplified from E. coli MG1655 chromosomal DNA using the following primers: ftsQ1p, 5′-[…]-3′ (SEQ ID NO: 19); ftsQ2p, 5′-[…]-3′ (SEQ ID NO: 20). The amplified product contained both the ftsQ promoters and the first 14 codons of the ftsQ gene flanked by BamHI and Bg1II sites. The ftsQ1p2p PCR product was cloned into the BamHI site of vector pMLB 1034 (Silhavy et al., Experiments with Gene Fusions, Cold Spring Harbor Press, 1984) to generate a lacZ fusion that contained the promoters, ribosome binding site, and initiation codon of ftsQ. A correctly oriented clone, pMS207, and a clone containing the ftsQ1p2p insert in the opposite orientation, pMS209, were chosen for further analysis. Both inserts were sequenced to ensure that no errors were introduced during the PCR reaction.\nFor ftsQ regulation in E. coli, the plasmids pMS207 and pMS209 were transformed into E. coli strain MC4100 (Silhavy et al., 1984, supra), and the transformants were grown overnight in LB containing 100 mg/L ampicillin at 30° C. with aeration. For rck regulation, S. typhimurium strains BA1105 (rck::MudJ) and BA1305 (rck::MudJ sdiA) were grown overnight in LB containing 100 mg/L kanamycin at 30° C. with aeration. […]"}},
  "note": "Where two headings read alike, the source gives them in different places.",
  "data": [
    {"smiles": "O=C(O)CCC(=O)C(=O)O", "note": "[-ketoglutarate]", "values": [
      {"measurement": "activity of candidates for the signal in inducing luminescence", "setting": "[1]", "result": "None of these compounds has activity"}
    ]},
    {"smiles": "C[C@@H](O)CC(=O)N[C@H]1CCOC1=O", "note": "[AI-1, N-(3-hydroxybutanoyl)-L-homoserine lactone, reference compound]", "values": [
      {"measurement": "light production in response to exogenous autoinducer", "setting": "[2]", "result": "not"},
      {"measurement": "lowest concentration the assay was sensitive to", "setting": "[3]", "result": 100, "unit": "nM"}
    ]},
    {"smiles": "CC(=O)C(=O)C(O)CO", "note": "(stereo not drawn) [AI-2, 4,5-dihydroxy-2,3-pentanedione]", "values": [
      {"measurement": "light production in response to exogenous autoinducer", "setting": "[2]", "result": "stimulated to produce light"},
      {"measurement": "change in galactosidase production of rck::MudJ", "setting": "[4]", "result": "No change"},
      {"measurement": "acid and base stability of the activity", "setting": "[5]", "result": "acid stable and base labile"},
      {"measurement": "heat resistance of the activity", "setting": "[5]", "result": "heat resistant to about 80 but not 100 °C"},
      {"measurement": "acid and base stability of the activity", "setting": "[5]; listed as signaling activity", "result": "acid stabile and base labile"},
      {"measurement": "heat resistance of the activity", "setting": "[5]; listed as signaling activity", "result": "heat resistant to 80 but not 100 °C"},
      {"measurement": "acid and base stability of the activity", "setting": "[5]; listed as signaling compound", "result": "acid stable and base labile"},
      {"measurement": "heat resistance of the activity", "setting": "[5]; listed as signaling compound", "result": "heat resistant to 80 °C but not 100 °C"},
      {"measurement": "change of galactosidase activity of ftsQ1p2p-lacZ fusion", "setting": "[6]", "result": "did not change"},
      {"measurement": "stimulation in light production by AI-2 produced in vitro", "setting": "[1]; dialyzed LuxS- cell extract + SAM + LuxS protein, 60 min, material with MW<5000", "result": "over 500 fold"}
    ]},
    {"smiles": "CC(=O)O", "note": "[acetate]", "values": [
      {"measurement": "activity of candidates for the signal in inducing luminescence", "setting": "[1]", "result": "None of these compounds has activity"}
    ]},
    {"smiles": "N[C@H]1CCOC1=O", "note": "[homoserine lactone]", "values": [
      {"measurement": "activity of candidates for the signal in inducing luminescence", "setting": "[1]", "result": "None of these compounds has activity"}
    ]}
  ]
}
